Test system: AT-1 rat prostate tumor cells
Assay: Post-thaw viability with half eutectic concentration KNO3 solution (Example 4)
Assay type: cell-based
Details: frozen to about −20° C.
Procedure: (§1) In freezing experiments with cell suspensions, a half eutectic concentration solution was mixed with cell culture media (Dulbecco's Modified Eagle's Medium/F-12) in 1 (salt solution): 2 (culture media) volume ratio.
AT-1 rat prostate tumor cells were cultured in vitro, as described above. Cultured AT-1 cells were separated from a culture flask by immersion in 0.05% (by volume) trypsin and 0.53 mM EDTA, and then suspended in 5% (by volume) fetal bovine serum (FBS)-supplemented medium such that the final trypsin concentration was <0.005% (by volume). After the separation, the cells were pelleted by centrifugation and the excess medium was removed. The cell pellet was re-suspended into various aqueous solutions (about 1.0 ml) before experiments and nominal cell concentration was about 2×10^6 cells/ml. The suspensions were stored in 1.5 ml microcentrifuge tube on ice (about 4° C.).
Liver tissues were also isolated from the rats.
The directional solidification stage, as described above, was used in the experiments. Controlled cooling and thawing rate were achieved by the DSC and directional solidification stage. Unless otherwise mentioned, cooling and thawing rates were 50° C./min.
For the directional solidification stage, fast thawing rates (about 200° C./min) were employed. […]
Post-thaw viabilities of AT-1 cell suspensions in various media were assessed. […]

SMILES | post-thaw viability
O=[N+]([O-])[O-].[K+] [KNO3, potassium nitrate] | 15.2±7.1%

Same assay, conditions: no freeze/thaw procedure

SMILES | viability of control samples
O=[N+]([O-])[O-].[K+] [KNO3, potassium nitrate] | 92.1%

Test system: AT-1 rat prostate tumor cells
Assay: Post-thaw viability of AT-1 cell suspensions in various media on the directional solidification stage (Hoechst/Propidium Iodide membrane integrity assay)
Assay type: cell-based
Details: end temperature −30° C., 5° C./minute
Procedure: as §1
AT-1 rat prostate tumor cells were cultured in vitro under standard tissue culture conditions, as are known. AT-1 cells were suspended in each eutectic changing solution, and kept at about 4° C.
Cultured AT-1 cells were separated from a culture flask by immersion in 0.05% (by volume) trypsin and 0.53 mM EDTA, and then suspended in 5% (by volume) fetal bovine serum (FBS)-supplemented medium such that the final trypsin concentration was <0.005% (by volume). After the separation, the cells were pelleted by centrifugation and the excess medium was removed. […]
Post-thaw viabilities of AT-1 cell suspensions in various media were assessed for varying end temperature of the freezing and thawing protocol on the directional solidification stage. […]
The concentrations of these solutions were determined so that the use of these solutions would not result in excessive killing of the AT-1 cells due to high osmotic pressure. […]
Viability of the AT-1 cell suspensions was measured by a membrane integrity assay using Hoechst and Propidium Iodide. […] After incubation, viability was assessed under a fluorescent microscope by scoring more than 200 cells for each sample.

SMILES | less viability than AT-1 cell suspension in 1×NaCl
[Cl-].[K+] [KCl, potassium chloride] | 70%

Test system: not given
Assay: not given
Details: Table 1, salts used to induce eutectic crystallization; cited from earlier work

SMILES | Eutectic Concentration
[Cl-].[K+] [KCl, potassium chloride] | 19.7 % wt./wt.
O=[N+]([O-])[O-].[K+] [KNO3, potassium nitrate] | 10.9 % wt./wt.
[Cl-].[Na+] [NaCl, sodium chloride] | 23.6 % wt./wt.

Same assay, conditions: solute in water; cited from earlier work

SMILES | % Eutectic Concentration (wt./wt.) | Eutectic Temp.
[Ca+2].[Cl-].[Cl-] [CaCl2] | 29.8 % (wt./wt.) | −55 °C
[Br-].[K+] [KBr] | – | −13.0 °C
[Cl-].[K+] [KCl, potassium chloride] | 19.7% (wt./wt.) | −11.1 °C
O=[N+]([O-])[O-].[K+] [KNO3, potassium nitrate] | 10.9% (wt./wt.) | −2.9 °C
[Cl-].[Cl-].[Mg+2] [MgCl2] | 21.6 % (wt./wt.) | −33.6 °C
O=S(=O)([O-])[O-].[Mg+2] [MgSO4] | 19.0% (wt./wt.) | −3.9 °C
Cl.N [NH4Cl] | 18.6 % (wt./wt.) | −15.8 °C
[Cl-].[Na+] [NaCl, sodium chloride] | 23.6% (wt./wt.) | −21.8 °C
OC[C@H]1O[C@@](CO)(O[C@H]2O[C@H](CO)[C@@H](O)[C@H](O)[C@H]2O)[C@@H](O)[C@@H]1O [Sucrose] | 62.5 % (wt./wt.) | −13.5 °C

Same assay, conditions: thermodynamic equilibrium; cited from earlier work

SMILES | eutectic point of the solution
[Cl-].[Na+] [NaCl, sodium chloride] | approximately −21.1 °C

Test system: AT-1 tumor tissues
Assay: Histology of AT-1 tumor tissues 2 days after freezing experiments on the directional solidification stage
Set-up: species or system rat
Details: frozen to −20° C., 400×
Procedure: FIGS. 7A-7F show images of histology preparations of AT-1 tumor tissues 2 days after the freezing experiments on the directional solidification stage. Control tissues are very similar in all cases (FIGS. 7A, 7C, and 7E). Some cytoplasmic retraction is seen after salt infusion in FIGS. 7C and 7E over the control sample (FIG. 7A), but overall viability appears high. After freezing the samples to −20° C., a reduction in the number and quality of nuclei in all frozen samples is noted (FIGS. 7B, 7D, and 7F). Nuclear changes include darkening, reduction in size of chromatin, pykonsis and in some cases loss of nuclear material. In addition, cell membranes in frozen salt infused samples are indistinct and difficult to identify. All of these changes appear accentuated in the KNO3 and KCl infused samples.

SMILES | histological changes after freezing (nuclei, cell membranes)
[Cl-].[K+] [KCl, potassium chloride] | accentuated
O=[N+]([O-])[O-].[K+] [KNO3, potassium nitrate] | accentuated

Test system: not listed separately
Assay: Onset temperature of eutectic solidification of AT-1 cell suspension media by DSC
Assay type: physicochemical
Details: AT-1 cell suspension medium
Procedure: Controlled cooling and thawing rate were achieved by the DSC and directional solidification stage. Unless otherwise mentioned, cooling and thawing rates were 5° C./min.
The onset temperature of the eutectic solidification was measured using the DSC, as described herein. Generally speaking, the viability of the AT-1 cells in the suspension solutions decreased with end temperature regardless of the media used. Note that the temperatures of noticeable viability drop to coincide with the eutectic crystallization temperatures of each suspension media. When the viability of the AT-1 cell suspension in the 1×NaCl (the onset of eutectic crystallization at about […]) is compared with that of KCl infused AT-1 cell suspension (the onset of eutectic crystallization at about −21° C.), there is 70% less viability at −30° C. in the KCl infused AT-1 cell suspension.

SMILES | onset of eutectic crystallization
[Cl-].[K+] [KCl, potassium chloride] | about −21 °C

Source: patent publication US20060122588A1, “Cryosurgery compositions and methods” (Regents of the University of Minnesota, priority 2002, published 2006)
